According to patent US8415469B2, “Compounds and methods for kinase modulation, and indications therefor” (Plexxikon Inc., priority 2005, dated 2013):
pIC50: −log10 of the molar value.

How the values were obtained:
Type in all cases: biochemical
Kdr = molecular target: T1, Kdr (Homo sapiens, UniProt P35968); assay: Z'-Lyte FRET kinase assay (Invitrogen), Kdr; conditions: read-out: IC50, activity toward kinase Kdr
T1 construct: purchased Invitrogen (assay run by Invitrogen)

Kit = molecular target: T2, Kit (Homo sapiens, UniProt P10721); assay: AlphaScreen kinase assay, Kit; conditions: read-out: IC50, activity toward kinase Kit
T2 construct: P1332.N6 BI PTP KIT M552-K948-X COD; His6 (N); made in house; host or cells: E. coli (PTP1B co-expressed)
T2 sequence (P10721 with tags, fused parts or gaps): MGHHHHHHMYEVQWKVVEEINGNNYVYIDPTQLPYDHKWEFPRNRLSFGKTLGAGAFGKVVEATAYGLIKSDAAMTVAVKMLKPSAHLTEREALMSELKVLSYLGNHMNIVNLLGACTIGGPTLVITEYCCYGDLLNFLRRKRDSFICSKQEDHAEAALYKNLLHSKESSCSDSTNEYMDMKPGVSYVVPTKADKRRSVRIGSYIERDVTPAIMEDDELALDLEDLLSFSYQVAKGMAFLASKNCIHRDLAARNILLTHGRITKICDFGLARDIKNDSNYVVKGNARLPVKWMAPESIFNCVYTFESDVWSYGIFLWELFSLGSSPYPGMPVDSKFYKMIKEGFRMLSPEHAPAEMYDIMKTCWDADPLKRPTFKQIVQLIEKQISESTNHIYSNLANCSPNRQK

Zap70 = molecular target: T3, Zap70 (Homo sapiens, UniProt P43403); assay: AlphaScreen kinase assay, Zap70; conditions: read-out: IC50, activity toward kinase Zap70
T3 construct: P1868.pFastBac1 ZAP70 D327-G606 HIS, WT; His7 (HHHHHHH) (C); made in house
T3 sequence (P43403 with tags, fused parts or gaps): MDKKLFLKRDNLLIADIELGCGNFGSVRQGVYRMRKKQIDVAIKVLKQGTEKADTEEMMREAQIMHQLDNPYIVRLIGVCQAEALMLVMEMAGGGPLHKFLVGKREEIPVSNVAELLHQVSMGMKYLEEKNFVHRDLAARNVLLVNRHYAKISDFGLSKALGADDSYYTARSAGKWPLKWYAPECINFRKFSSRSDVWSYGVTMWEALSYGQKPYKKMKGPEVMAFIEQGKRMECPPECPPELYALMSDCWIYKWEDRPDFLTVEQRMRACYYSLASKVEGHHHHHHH
Description: AlphaScreen assay was used to screen additional kinases. The assay is similarly dependent on the phosphorylation of a peptide substrate. In this assay, an antibody that recognizes phosphorylated substrate is bound to an acceptor bead. The peptide substrate is attached to biotin, which binds to a donor head that contains streptavidin. Thus phosphorylated substrate is bound by antibody and streptavidin, bringing the donor and acceptor heads into close proximity when kinase is not inhibited. The donor produces singlet oxygen which results in emission from the acceptor when they are in close proximity. Conversely, when kinase is inhibited, the donor and acceptor beads are not associated and the emission from the acceptor is reduced.
AlphaScreen assays were done using compounds dissolved in DMSO to a concentration of 20 mM. The compounds were diluted accordingly to the desired final concentrations in each sample well, using 1:3 serial dilution for a total of 8 concentration points.

Jnk3 = molecular target: T4, Jnk3 (Homo sapiens, UniProt P53779); assay: AlphaScreen kinase assay, Jnk3; conditions: read-out: IC50, activity toward kinase Jnk3
T4 construct: purchased Upstate Biotechnology
T4 sequence (P53779 whole entry): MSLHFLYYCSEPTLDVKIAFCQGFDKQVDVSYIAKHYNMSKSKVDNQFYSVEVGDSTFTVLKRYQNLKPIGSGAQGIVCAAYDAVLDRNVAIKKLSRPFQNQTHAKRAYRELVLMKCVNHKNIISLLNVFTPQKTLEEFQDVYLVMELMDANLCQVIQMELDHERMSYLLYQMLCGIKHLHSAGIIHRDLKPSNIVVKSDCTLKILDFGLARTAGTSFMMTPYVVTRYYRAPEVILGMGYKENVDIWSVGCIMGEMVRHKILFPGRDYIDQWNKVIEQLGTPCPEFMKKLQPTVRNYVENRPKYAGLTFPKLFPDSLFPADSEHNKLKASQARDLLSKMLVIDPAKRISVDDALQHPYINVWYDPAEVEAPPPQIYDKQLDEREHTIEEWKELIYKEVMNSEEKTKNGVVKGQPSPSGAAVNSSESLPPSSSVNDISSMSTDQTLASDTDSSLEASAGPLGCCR

Ret = molecular target: T5, Ret (Homo sapiens, UniProt P07949); assay: AlphaScreen kinase assay, Ret; conditions: read-out: IC50, activity toward kinase Ret
T5 construct: P1378.pET-SF BI-PTP RET H661-R1012 HIS; made in house
T5 sequence (P07949 with tags, fused parts or gaps): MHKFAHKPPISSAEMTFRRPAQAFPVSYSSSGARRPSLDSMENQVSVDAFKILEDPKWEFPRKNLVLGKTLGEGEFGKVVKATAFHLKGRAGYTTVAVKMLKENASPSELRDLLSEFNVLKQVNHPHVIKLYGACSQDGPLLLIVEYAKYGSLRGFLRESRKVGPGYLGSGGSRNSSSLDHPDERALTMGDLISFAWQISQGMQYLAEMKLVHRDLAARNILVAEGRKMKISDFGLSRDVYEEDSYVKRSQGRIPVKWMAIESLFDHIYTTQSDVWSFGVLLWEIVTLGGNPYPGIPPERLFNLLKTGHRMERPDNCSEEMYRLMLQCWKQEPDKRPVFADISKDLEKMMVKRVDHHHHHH

FGFR1 = molecular target: T6, FGFR1 (Homo sapiens, UniProt P11362, C488A/C584S); assay: AlphaScreen kinase assay, FGFR1; conditions: read-out: IC50, activity toward kinase FGFR
T6 construct: P1351.pET N6 BI-PTP FGFR A458-E765-X C488A, C584S; made in house; host or cells: E. coli (PTP1B co-expressed)
T6 sequence (P11362 458-765 C488A/C584S): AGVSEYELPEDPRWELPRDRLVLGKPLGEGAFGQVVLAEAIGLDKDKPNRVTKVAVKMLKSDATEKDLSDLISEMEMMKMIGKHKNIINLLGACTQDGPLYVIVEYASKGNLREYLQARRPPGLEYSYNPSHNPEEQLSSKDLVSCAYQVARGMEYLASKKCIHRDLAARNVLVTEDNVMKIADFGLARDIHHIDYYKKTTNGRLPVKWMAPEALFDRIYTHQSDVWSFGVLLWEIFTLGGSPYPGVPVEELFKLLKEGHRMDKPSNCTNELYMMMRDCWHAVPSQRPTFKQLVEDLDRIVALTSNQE

B-Raf V600E = molecular target: T7, B-Raf V600E (Homo sapiens, UniProt P15056, V600E); assay: AlphaScreen kinase assay, B-Raf V600E; conditions: read-out: IC50, activity toward kinase B-Raf V600E
T7 construct: P4254. pFastBacBD-CDC37 BRAF D437-K722-X, V600E; His6 with pFastBac HT leader (TEV site) (N); made in house; host or cells: Sf9 (baculovirus; chaperone CDC37 co-expressed)
T7 sequence (P15056 with tags, fused parts or gaps V600E): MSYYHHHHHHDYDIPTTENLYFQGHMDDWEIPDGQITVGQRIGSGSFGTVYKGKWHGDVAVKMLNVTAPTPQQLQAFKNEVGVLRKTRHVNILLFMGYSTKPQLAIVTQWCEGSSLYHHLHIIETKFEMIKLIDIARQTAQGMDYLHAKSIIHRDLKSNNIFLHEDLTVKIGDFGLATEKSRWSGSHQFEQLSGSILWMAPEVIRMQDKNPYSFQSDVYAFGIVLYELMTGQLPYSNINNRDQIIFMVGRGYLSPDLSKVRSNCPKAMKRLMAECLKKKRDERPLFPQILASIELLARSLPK

T1 sequence (P35968 20-1356): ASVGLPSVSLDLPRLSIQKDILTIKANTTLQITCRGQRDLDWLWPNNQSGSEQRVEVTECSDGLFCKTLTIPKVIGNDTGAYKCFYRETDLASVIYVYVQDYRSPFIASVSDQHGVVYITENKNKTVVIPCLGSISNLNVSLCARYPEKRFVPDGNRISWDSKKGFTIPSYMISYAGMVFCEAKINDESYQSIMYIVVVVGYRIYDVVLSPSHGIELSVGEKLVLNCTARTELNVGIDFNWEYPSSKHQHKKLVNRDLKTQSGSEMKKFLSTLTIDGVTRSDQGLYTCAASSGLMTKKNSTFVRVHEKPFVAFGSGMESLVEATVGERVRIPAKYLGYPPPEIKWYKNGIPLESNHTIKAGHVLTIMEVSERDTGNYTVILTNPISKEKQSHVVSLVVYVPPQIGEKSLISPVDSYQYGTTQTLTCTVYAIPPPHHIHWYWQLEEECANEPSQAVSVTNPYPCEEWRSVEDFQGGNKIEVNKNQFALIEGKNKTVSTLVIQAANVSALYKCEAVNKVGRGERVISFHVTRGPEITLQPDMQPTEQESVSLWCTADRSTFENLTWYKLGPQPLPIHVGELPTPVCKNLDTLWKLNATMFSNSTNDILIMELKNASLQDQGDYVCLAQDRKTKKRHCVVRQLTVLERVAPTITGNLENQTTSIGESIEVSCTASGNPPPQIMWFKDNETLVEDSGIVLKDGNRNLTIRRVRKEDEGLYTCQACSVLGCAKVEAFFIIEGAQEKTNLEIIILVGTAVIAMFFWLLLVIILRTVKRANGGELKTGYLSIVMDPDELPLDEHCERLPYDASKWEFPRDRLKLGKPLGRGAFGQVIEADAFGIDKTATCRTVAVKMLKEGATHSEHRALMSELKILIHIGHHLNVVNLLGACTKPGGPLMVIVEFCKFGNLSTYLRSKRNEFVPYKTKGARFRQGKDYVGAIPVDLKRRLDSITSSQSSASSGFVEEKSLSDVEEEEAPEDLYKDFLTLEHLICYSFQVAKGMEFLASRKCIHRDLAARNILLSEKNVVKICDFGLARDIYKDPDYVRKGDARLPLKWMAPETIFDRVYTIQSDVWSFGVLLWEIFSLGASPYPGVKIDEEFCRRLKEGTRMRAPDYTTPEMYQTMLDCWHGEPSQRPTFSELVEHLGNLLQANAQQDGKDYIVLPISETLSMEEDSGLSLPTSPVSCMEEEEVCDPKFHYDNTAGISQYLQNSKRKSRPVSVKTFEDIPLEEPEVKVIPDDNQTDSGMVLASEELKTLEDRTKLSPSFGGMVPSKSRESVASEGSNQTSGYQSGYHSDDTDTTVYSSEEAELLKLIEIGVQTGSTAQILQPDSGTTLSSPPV

SMILES	pIC50 (Zap70)	pIC50 (Ret)	also measured
Fc1ccccc1-c1c[nH]c2ncccc12 [Compound P-0195]	≥ 5.00	–	pIC50 (Kdr): ≥ 5.00; pIC50 (Kit): ≥ 5.00
Fc1cc(F)cc(-c2ccnc3[nH]ccc23)c1 [Compound P-0296]	≥ 5.00	–	pIC50 (Kdr): ≥ 5.00
CC(C)c1ccc(Cc2c[nH]c3ncccc23)cn1 [Compound P-0379]	≥ 5.00	–	pIC50 (FGFR1): ≥ 5.00; pIC50 (Kdr): ≥ 5.00
COC(c1ccc(Br)cc1)c1c[nH]c2ncc(-c3cccc(S(C)(=O)=O)c3)cc12 (centres unmarked) [Compound P-0434]	≥ 5.00	≥ 5.00	pIC50 (B-Raf V600E): ≥ 5.00
Cc1cc(C)cc(Cc2c[nH]c3ncccc23)c1 [Compound P-0507]	≥ 5.00	–	pIC50 (FGFR1): ≥ 5.00
O=C(c1cccc(O)c1)c1ccc(-c2cnc3[nH]ccc3c2)s1 [Compound P-0755]	≥ 5.00	–	pIC50 (Jnk3): ≥ 5.00; pIC50 (Kit): ≥ 5.00
Cc1cccc(-c2ccnc3[nH]cc(CNS(=O)(=O)c4ccc([N+](=O)[O-])cc4)c23)c1 [Compound P-0888]	≥ 5.00	–	–
Cc1[nH]c2ncccc2c1-c1ccc(F)c(F)c1 [Compound P-0929]	≥ 5.00	–	–
O=S(=O)(NCc1c[nH]c2ncccc12)c1ccc(Cl)s1 [Compound P-0930]	≥ 5.00	–	–
Cc1[nH]c2ncccc2c1-c1ccc(C(C)(C)C)cc1 [Compound P-0953]	≥ 5.00	–	–
O=C(NCc1ccccc1Cl)NCc1c[nH]c2ncccc12 [Compound P-0982]	≥ 5.00	–	–
O=Cc1ccc(-c2ccnc3[nH]ccc23)cc1 [Compound P-0996]	≥ 5.00	–	–
Cc1cc(C(=O)c2c[nH]c3nccc(-c4cccc(/C=C/C(=O)O)c4)c23)no1 [Compound P-1000]	≥ 5.00	≥ 5.00	pIC50 (B-Raf V600E): ≥ 5.00
O=S(=O)(c1ccsc1)N1CCN(Cc2c[nH]c3ncccc23)CC1 [Compound P-1051]	≥ 5.00	–	–
NC(=O)c1ccc(-c2cnc3[nH]cc(C(=O)c4ccc(Cl)cc4)c3c2)cc1 [Compound P-1073]	≥ 5.00	≥ 5.00	–
CCCCc1ccc(S(=O)(=O)NCc2c[nH]c3ncccc23)cc1 [Compound P-1119]	≥ 5.00	≥ 5.00	–
O=C1CCCN1CCCNCc1c[nH]c2ncccc12 [Compound P-1184]	≥ 5.00	–	–
COCc1c[nH]c2ncccc12 [Compound P-1197]	≥ 5.00	–	–

Continued, in another order:

pIC50 (Zap70)	pIC50 (Ret)	SMILES	also measured
≥ 5.00	–	COc1cccc(C(=O)c2c[nH]c3ncc(-c4cccnc4)cc23)c1 [Compound P-0218]	pIC50 (Jnk3): ≥ 5.00
≥ 5.00	≥ 5.00	O=C(c1cccc(F)c1)c1c[nH]c2ncc(-c3ccsc3)cc12 [Compound P-0378]	pIC50 (Jnk3): ≥ 5.00; pIC50 (Kit): ≥ 5.00
≥ 5.00	≥ 5.00	O=C(c1cccc(Cl)c1Cl)c1c[nH]c2ncc(-c3ccsc3)cc12 [Compound P-0698]	pIC50 (B-Raf V600E): ≥ 5.00; pIC50 (FGFR1): ≥ 5.00; pIC50 (Jnk3): ≥ 5.00
≥ 5.00	≥ 5.00	O=C(c1cccc(F)c1)c1c[nH]c2ncc(Br)cc12 [Compound P-0865]	pIC50 (FGFR1): ≥ 5.00; pIC50 (Kit): ≥ 5.00
≥ 5.00	≥ 5.00	COc1cccc(C(=O)c2c[nH]c3ncc(-c4ccc(C(N)=O)cc4)cc23)c1 [Compound P-1005]	pIC50 (Jnk3): ≥ 5.00
≥ 5.00	≥ 5.00	O=C(O)/C=C/c1cccc(-c2cnc3[nH]cc(C(=O)c4ccc5nsnc5c4)c3c2)c1 [Compound P-1019]	–
≥ 5.00	≥ 5.00	NC(=O)c1ccc(-c2cnc3[nH]cc(C(=O)c4ccc5nsnc5c4)c3c2)cc1 [Compound P-1081]	–
≥ 5.00	≥ 5.00	CS(=O)(=O)Nc1cccc(-c2cnc3[nH]cc(C(=O)c4ccc5nsnc5c4)c3c2)c1 [Compound P-1089]	–
